Experiment [1] relates to Mus musculus. The experiment is described as follows: In vivo effective dose required to antagonize the apomorphine induced climbing response in mice administered intraperitoneally. The experiment is classed as functional. The following applies: ip.
The target in experiment [2] is Serotonin 2 (5-HT2) receptor (Rattus norvegicus, UniProt P30994+P08909+P14842). Briefly: In vitro inhibitory activity against [3H]ketanserin binding to 5-hydroxytryptamine 2 receptor. Type of experiment: protein assay.
For experiment [3], the target named is T1, 5-hydroxytryptamine receptor 1A (Rattus norvegicus, UniProt P19327).
T1 sequence (P19327 whole entry): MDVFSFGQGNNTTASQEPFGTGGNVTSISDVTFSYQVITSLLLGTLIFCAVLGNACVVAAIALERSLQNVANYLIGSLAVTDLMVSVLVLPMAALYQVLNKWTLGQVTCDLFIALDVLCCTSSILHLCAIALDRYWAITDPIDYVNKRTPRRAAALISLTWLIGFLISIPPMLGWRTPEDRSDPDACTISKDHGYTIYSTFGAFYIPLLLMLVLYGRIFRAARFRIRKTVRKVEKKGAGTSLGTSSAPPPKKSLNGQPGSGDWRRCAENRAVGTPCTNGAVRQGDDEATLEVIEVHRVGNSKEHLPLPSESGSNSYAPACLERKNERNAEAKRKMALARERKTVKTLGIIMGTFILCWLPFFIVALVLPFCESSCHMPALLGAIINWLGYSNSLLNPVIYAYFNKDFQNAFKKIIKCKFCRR
Briefly: In vitro inhibitory activity against [3H]8-OH-DPAT binding to 5-hydroxytryptamine 1A receptor.

For experiment [4], the system named is Mus musculus. Briefly: In vivo effective dose to antagonize the apomorphine induced climbing response in stereotype mouse administered intraperitoneally. The experiment is classed as functional. The settings on record: ip.
For experiment [5], the system named is Mus musculus. Briefly: In vivo effective dose required to antagonize the apomorphine induced climbing response in mice administered perorally. The following applies: po. The experiment is classed as functional.
Experiment [6] concerns Mus musculus. Briefly: In vivo effective dose to induce catalepsy in mouse administered perorally. Type of experiment: functional. The following applies: po.
Experiment [7] has as its system Mus musculus. The experiment is described as follows: In vivo effective dose to antagonize the apomorphine induced climbing response in stereotypy mouse administered perorally. Type of experiment: functional. The settings on record: po.
For experiment [8], the system named is Mus musculus. Briefly: In vivo effective dose to antagonize the apomorphine induced climbing response in stereotype mouse administered intraperitoneally ( value in bracket indicates 95% confidence limit). Type of experiment: functional. The settings on record: ip.
For experiment [9], the system named is Mus musculus. The experiment is described as follows: In vivo effective dose to antagonize the apomorphine induced climbing response in stereotypy mouse administered perorally Value in parentheses is 95% confidence limits. The settings on record: po. Type of experiment: functional.
Experiment [10] relates to Mus musculus. Briefly: In vivo effective dose to antagonize the apomorphine induced climbing response in mice administered perorally. value in bracket denotes 95% confidence limit). The settings on record: po. Type of experiment: functional.
The test system of experiment [11] is Mus musculus. The experiment is described as follows: In vivo effective dose to induce catalepsy in mouse administered perorally. Value in parentheses is 95% confidence limits. Type of experiment: functional. The following applies: po.
The test system of experiment [12] is Mus musculus. Briefly: In vivo effective dose to antagonize the apomorphine induced climbing response in mice administered intraperitoneally. (value in bracket denotes 95% confidence limit). The experiment is classed as functional. The settings on record: ip.
The test system of experiment [13] is Mus musculus. The experiment is described as follows: In vivo effective dose to antagonize the apomorphine induced climbing response in mice administered intraperitoneally. The experiment is classed as functional. The settings on record: ip.
Experiment [14] relates to Mus musculus. The experiment is described as follows: In vivo effective dose to antagonize the apomorphine induced climbing response in mice administered perorally. Type of experiment: functional. The settings on record: po.

As to `CNc1ccccc1C(=O)NCCCCN1CCN(c2nsc3ccccc23)CC1.Cl`, the ED50 (as a rule, the dose that gives a 50% effect, or the effect in half of the subjects) came to 5.8 mg/kg in the experiment with Mus musculus [1]; 13.5 mg/kg in the experiment on Mus musculus [4]; 15.6 mg/kg with Mus musculus [5]; 80.6 mg/kg in the experiment with Mus musculus [6]; 65 mg/kg in the experiment on Mus musculus [7]. In addition, the IC50 (usually the concentration needed to halve the response being measured) in [2] was found to be 12 nM; in experiment [3] it was 10 nM.
For the molecule `Cl.Nc1c(F)cccc1C(=O)NCCCCN1CCN(c2nsc3ccccc23)CC1`, the ED50 with Mus musculus [1] stood at 0.9 mg/kg; in the experiment with Mus musculus [4] it was 8.9 mg/kg; with Mus musculus [5], 14.3 mg/kg; in the experiment with Mus musculus [6] it was 55.5 mg/kg; in the experiment on Mus musculus [7] it was 46.7 mg/kg. The figures for the IC50 in experiment [2] and in experiment [3] were 0.5 nM and 1.5 nM, respectively.
As to `CC(C)[C@H](Nc1ccccc1C(=O)NCCCCN1CCN(c2nsc3ccccc23)CC1)C(=O)O.Cl`, the values for the concentration for half-maximal inhibition (IC50) in [2] and in experiment [3] were 2.7 nM and 5.4 nM, respectively. Besides, the ED50 with Mus musculus [4] is 26.9 mg/kg; in the experiment on Mus musculus [5] it was 17.9 mg/kg; in the experiment with Mus musculus [6], 44.5 mg/kg; with Mus musculus [7] it was 59.9 mg/kg.
On to `Cl.Nc1ccccc1C(=O)NCCCCN1CCN(c2nsc3ccccc23)CC1`, for which the ED50 stood at 10.2 mg/kg in the experiment with Mus musculus [8]; 91.1 mg/kg in the experiment on Mus musculus [9]; 10.1 mg/kg in the experiment with Mus musculus [10]; 192 mg/kg in the experiment on Mus musculus [11]; 1.5 mg/kg in the experiment on Mus musculus [12]. Also, the IC50 in experiment [2] was 3.3 nM; in experiment [3], 3.8 nM.
`Cl.[N-]=[N+]=Nc1ccccc1C(=O)NCCCCN1CCN(c2nsc3ccccc23)CC1` returned an ED50 in the experiment with Mus musculus [13] of 25 mg/kg. Moreover, the figures for the IC50 in [2] and in [3] were 1.8 nM and 3.7 nM, respectively.
Regarding `COc1ccc(Br)c(O)c1C(=O)NCCCCN1CCN(c2nsc3ccccc23)CC1.Cl`, the ED50 came out at 1.5 mg/kg in the experiment with Mus musculus [1]; 15.4 mg/kg with Mus musculus [4]; 14.3 mg/kg in the experiment with Mus musculus [5]; 123 mg/kg with Mus musculus [6]; 87.5 mg/kg in the experiment with Mus musculus [7]. Moreover, the half-maximal inhibitory concentration (IC50) in [2] was determined as 15 nM; in experiment [3], 26 nM.
In the case of `Cl.O=C(NCCCCN1CCN(c2nsc3ccccc23)CC1)c1ccccc1O`, the ED50 was found to be 1 mg/kg in the experiment with Mus musculus [1] and 21.5 mg/kg in the experiment on Mus musculus [14]. Further, the values for the IC50 in experiment [2] and in experiment [3] were 3.9 nM and 12 nM, respectively.
In the case of `Cl.Nc1ccc(Cl)cc1C(=O)NCCCCN1CCN(c2nsc3ccccc23)CC1`, the median effective dose (ED50) in the experiment on Mus musculus [1] is below 6 mg/kg; with Mus musculus [5] it was 25 mg/kg. The IC50 in [2] turned out to be 1.6 nM; in experiment [3] it was 9.4 nM.

The values are drawn from ChEMBL document CHEMBL1129740, “Structure-activity relationships of a series of substituted benzamides: potent D2/5-HT2 antagonists and 5-HT1a agonists as neuroleptic agents” (J Med Chem, 1996).
